In US9962350B2, “Agent for improving normal development rate of fertilized eggs” (SBI Pharmaceuticals Co., Ltd., priority 2014, dated 2018):

Key:
[1] = test system: C57BL/6J fertilized eggs (natural mating); assay: Low-temperature in vitro culture of natural mating-derived fertilized eggs in KSOM or mWM with ALA; embryo development; type: cell-based, mouse; details: 35° C.
Experimental: According to a routine method of controlled ovarian hyperstimulation, 5 U (units) of equine chorionic gonadotropin (serum gonadotropin) (ASKA Pharmaceutical Co., Ltd.) were intraperitoneally administered to each female mouse of the C57BL/6J lineage (4 weeks old to 6 weeks old). 45 to 48 hours later, 5 U (units) of gonadotropin (human chorionic gonadotropin) (ASKA Pharmaceutical Co., Ltd.) were intraperitoneally administered thereto. Immediately after the administration of gonadotropin, each female mouse was mated with each male mouse of the C57BL/6J lineage. In the next morning, the oviducts were recovered into physiological saline (0.9% (w/v) NaCl) from the female mice that were able to be confirmed to have a vaginal plug. The oviducts were perfused with KSOM or mWM (both were purchased from ARK Resource Co., Ltd., http://www.ark-resource.co.jp/seihin/cryopreservation-liquid/) containing hyaluronidase (approximately 300 μg/ml, Sigma-Aldrich Corp.). After removal of cumulus cells from the obtained fertilized eggs, the fertilized eggs were recovered. In order to remove hyaluronidase, the fertilized eggs were washed with each medium (KSOM or mWM) and maintained in KSOM or mWM (ARK Resource Co., Ltd.) in an incubator of 37° C. and 5% CO2 until the fertilized eggs were recovered from all of the female mice. These two media used are typical media for use in mouse embryo culture. KSOM is a typical low glucose-containing medium, whereas mWM is a high glucose-containing medium.
20 to 50 of the recovered fertilized eggs were transferred into a drop (covered with mineral oil (Sigma-Aldrich Corp.)) consisting of 100 μl of ALA-unsupplemented or ALA-supplemented (1 μM or 3 μM) medium (KSOM or mWM). Subsequently, the fertilized eggs were cultured under two culture conditions: a condition of 37° C. and 5% CO2 and a condition of 35° C. and 5% CO2. The number of 2-cell eggs was counted 24 hours after the fertilized egg harvest, and the number of blastocysts was counted 96 hours thereafter. The development rate was evaluated in the same way as in Example 1. The results about KSOM are shown in Tables 8 to 10 and FIGS. 5 and 6. The results about mWM are shown in Tables 11 to 13 and FIGS. 7 and 8.

[2] = test system: C57BL/6J in vitro fertilized eggs; assay: Low-temperature in vitro culture of in vitro fertilization-derived fertilized eggs in KSOM or mWM with ALA; embryo development; type: cell-based, mouse
Experimental: 5 U (units) of equine chorionic gonadotropin (serum gonadotropin) (ASKA Pharmaceutical Co., Ltd.) were intraperitoneally administered to each female mouse of the C57BL/6J lineage (3.9 weeks old to 4.0 weeks old). […], 5 U (units) of gonadotropin (human chorionic gonadotropin) (ASKA Pharmaceutical Co., Ltd.) were intraperitoneally administered thereto for controlled ovarian hyperstimulation. 15 hours after the administration of gonadotropin, the oviducts were recovered by opening the abdomens. In mineral oil, the ampullae of the oviducts were incised with a dissecting needle, and the ova were recovered into a drop of mHTF medium (ARK Resource Co., Ltd.). Sperms were recovered from the cauda epididymides of C57BL/6J male mice and cultured in mHTF medium at 37° C. for 40 minutes to 1 hour under 5% CO2 conditions for capacitation. 2 μl to 4 μl of the mHTF medium containing the sperms was added to the medium drop containing the recovered ova for insemination, and cultured at 37° C. under 5% CO2 conditions. 4 hours to 6 hours after the insemination, the fertilized eggs were washed with KSOM (ARK Resource Co., Ltd.) or mWM (ARK Resource Co., Ltd.) to remove cumulus cells and sperms. The fertilized eggs were temporarily cultured in KSOM or mWM in an incubator of 37° C. and 5% CO2 until all of the fertilized eggs were recovered.
25 of the fertilized eggs per drop were transferred to a drop (covered with mineral oil (Sigma-Aldrich Corp.)) consisting of 100 μl of ALA-unsupplemented or ALA-supplemented (1 μM or 3 μM) medium (KSOM or mWM). Subsequently, the fertilized eggs were cultured under three conditions: a condition of 37° C. and 5% CO2, a condition of 35° C. and 5% CO2, and a condition of 35.5° C. and 5% CO2. The number of 2-cell eggs was counted 24 hours after the ovum recovery, and the number of blastocysts was counted 96 hours thereafter. Since the development of fertilized eggs obtained by in vitro fertilization is slightly slow, the number of blastocysts was also counted 120 hours after the ovum recovery. The development rate of embryos at each culture time was calculated on the basis of the number of 2-cell embryos 24 hours postfertilization defined as 100%. The results about KSOM are shown in Tables 14 and 15 and FIGS. 9 and 11. The results about mWM are shown in Tables 16 and 17 and FIGS. 10, 12, and 13.

[3] = 1 μM ALA, mWM, 96 hr (blastocysts)
[4] = 3 μM ALA, mWM, 96 hr (blastocysts)

Structure (SMILES): NCC(=O)CCC(=O)O [ALA, 5-aminolevulinic acid]
- The number of developed embryos in KSOM ([1]; 1 μM ALA, 24 hr): 39
- development rate with the number of fertilized eggs (0 hr) in KSOM defined as 100% ([1]; 1 μM ALA, 24 hr): 67%
- The number of developed embryos in KSOM ([1]; 1 μM ALA, 48 hr): 23
- development rate with the number of 2-cell embryos 24 hours postfertilization in KSOM defined as 100% ([1]; 1 μM ALA, 48 hr): 59%
- development rate with the number of fertilized eggs (0 hr) in KSOM defined as 100% ([1]; 1 μM ALA, 48 hr): 40%
- The number of developed embryos in KSOM ([1]; 1 μM ALA, 96 hr): 6
- development rate with the number of 2-cell embryos 24 hours postfertilization in KSOM defined as 100% ([1]; 1 μM ALA, 96 hr (blastocysts)): 15%
- development rate with the number of fertilized eggs (0 hr) in KSOM defined as 100% ([1]; 1 μM ALA, 96 hr (blastocysts)): 10%
- The number of developed embryos in mWM ([1]; 1 μM ALA, mWM, 24 hr): 59
- development rate with the number of fertilized eggs (0 hr) in mWM defined as 100% ([1]; 1 μM ALA, mWM, 24 hr): 50%
- The number of developed embryos in mWM ([1]; 1 μM ALA, mWM, 48 hr): 48
- development rate with the number of 2-cell embryos 24 hours postfertilization in mWM defined as 100% ([1]; 1 μM ALA, mWM, 48 hr): 81%
- development rate with the number of fertilized eggs (0 hr) in mWM defined as 100% ([1]; 1 μM ALA, mWM, 48 hr): 39%
- elevation of development rate to blastocysts vs control (in words) ([1]; 1 μM ALA, mWM, 96 hours (Tables 12 and 13)): no significant elevation
- The number of developed embryos in mWM ([1]; 1 μM ALA, mWM, 96 hr): 27
- development rate with the number of 2-cell embryos 24 hours postfertilization in mWM defined as 100% [1, 3]: 46%
- development rate with the number of fertilized eggs (0 hr) in mWM defined as 100% [1, 3]: 22%
- The number of developed embryos in mWM ([1]; 3 μM ALA, mWM, 24 hr): 62
- development rate with the number of fertilized eggs (0 hr) in mWM defined as 100% ([1]; 3 μM ALA, mWM, 24 hr): 50%
- The number of developed embryos in mWM ([1]; 3 μM ALA, mWM, 48 hr): 62
- development rate with the number of 2-cell embryos 24 hours postfertilization in mWM defined as 100% ([1]; 3 μM ALA, mWM, 48 hr): 100%
- development rate with the number of fertilized eggs (0 hr) in mWM defined as 100% ([1]; 3 μM ALA, mWM, 48 hr): 50%
- The number of developed embryos in mWM ([1]; 3 μM ALA, mWM, 96 hr): 40
- development rate with the number of 2-cell embryos 24 hours postfertilization in mWM defined as 100% [1, 4]: 65%
- development rate with the number of fertilized eggs (0 hr) in mWM defined as 100% [1, 4]: 32%
- The number of developed embryos in KSOM ([2]; 35° C., 1 μM ALA, 24 hr): 61
- The number of developed embryos in KSOM ([2]; 35° C., 1 μM ALA, 48 hr): 27
- development rate with the number of 2-cell embryos 24 hours postfertilization in KSOM defined as 100% ([2]; 35° C., 1 μM ALA, 48 hr): 44%
- The number of developed embryos in KSOM ([2]; 35° C., 1 μM ALA, 72 hr): 26
- development rate with the number of 2-cell embryos 24 hours postfertilization in KSOM defined as 100% ([2]; 35° C., 1 μM ALA, 72 hr): 43%
- The number of developed embryos in KSOM ([2]; 35° C., 1 μM ALA, 120 hr): 22
- development rate with the number of 2-cell embryos 24 hours postfertilization in KSOM defined as 100% ([2]; 35° C., 1 μM ALA, 120 hr (blastocysts)): 36%
- The number of developed embryos in mWM ([2]; 35° C., 1 μM ALA, 24 hr): 51
- The number of developed embryos in mWM ([2]; 35° C., 1 μM ALA, 48 hr): 55
- development rate with the number of 2-cell embryos 24 hours postfertilization in mWM defined as 100% ([2]; 35° C., 1 μM ALA, 48 hr): 108%
- The number of developed embryos in mWM ([2]; 35° C., 1 μM ALA, 72 hr): 46
- development rate with the number of 2-cell embryos 24 hours postfertilization in mWM defined as 100% ([2]; 35° C., 1 μM ALA, 72 hr): 90%
- The number of developed embryos in mWM ([2]; 35° C., 1 μM ALA, 96 hr): 29
- development rate with the number of 2-cell embryos 24 hours postfertilization in mWM defined as 100% ([2]; 35° C., 1 μM ALA, 96 hr (blastocysts)): 53%
- The number of developed embryos in KSOM ([2]; 35° C., 3 μM ALA, 24 hr): 60
- The number of developed embryos in KSOM ([2]; 35° C., 3 μM ALA, 48 hr): 29
- development rate with the number of 2-cell embryos 24 hours postfertilization in KSOM defined as 100% ([2]; 35° C., 3 μM ALA, 48 hr): 48%
- The number of developed embryos in KSOM ([2]; 35° C., 3 μM ALA, 72 hr): 27
- development rate with the number of 2-cell embryos 24 hours postfertilization in KSOM defined as 100% ([2]; 35° C., 3 μM ALA, 72 hr): 45%
- The number of developed embryos in KSOM ([2]; 35° C., 3 μM ALA, 120 hr): 16
- development rate with the number of 2-cell embryos 24 hours postfertilization in KSOM defined as 100% ([2]; 35° C., 3 μM ALA, 120 hr (blastocysts)): 27%
- The number of developed embryos in mWM ([2]; 35° C., 3 μM ALA, 24 hr): 52
- The number of developed embryos in mWM ([2]; 35° C., 3 μM ALA, 48 hr): 44
- development rate with the number of 2-cell embryos 24 hours postfertilization in mWM defined as 100% ([2]; 35° C., 3 μM ALA, 48 hr): 85%
- The number of developed embryos in mWM ([2]; 35° C., 3 μM ALA, 72 hr): 27
- development rate with the number of 2-cell embryos 24 hours postfertilization in mWM defined as 100% ([2]; 35° C., 3 μM ALA, 72 hr): 52%
- The number of developed embryos in mWM ([2]; 35° C., 3 μM ALA, 96 hr): 20
- development rate with the number of 2-cell embryos 24 hours postfertilization in mWM defined as 100% ([2]; 35° C., 3 μM ALA, 96 hr (blastocysts)): 38%
- The number of developed embryos in mWM ([2]; 35.5° C., 1 μM ALA, 24 hr): 60
- The number of developed embryos in mWM ([2]; 35.5° C., 1 μM ALA, 48 hr): 60
- development rate with the number of 2-cell embryos 24 hours postfertilization in mWM defined as 100% ([2]; 35.5° C., 1 μM ALA, 48 hr): 100%
- The number of developed embryos in mWM ([2]; 35.5° C., 1 μM ALA, 72 hr): 49
- development rate with the number of 2-cell embryos 24 hours postfertilization in mWM defined as 100% ([2]; 35.5° C., 1 μM ALA, 72 hr): 82%
- The number of developed embryos in mWM ([2]; 35.5° C., 1 μM ALA, 96 hr): 42
- development rate with the number of 2-cell embryos 24 hours postfertilization in mWM defined as 100% ([2]; 35.5° C., 1 μM ALA, 96 hr (blastocysts)): 70%
- The number of developed embryos in mWM ([2]; 35.5° C., 3 μM ALA, 24 hr): 52
- The number of developed embryos in mWM ([2]; 35.5° C., 3 μM ALA, 48 hr): 52
- development rate with the number of 2-cell embryos 24 hours postfertilization in mWM defined as 100% ([2]; 35.5° C., 3 μM ALA, 48 hr): 100%
- The number of developed embryos in mWM ([2]; 35.5° C., 3 μM ALA, 72 hr): 46
- development rate with the number of 2-cell embryos 24 hours postfertilization in mWM defined as 100% ([2]; 35.5° C., 3 μM ALA, 72 hr): 88%
- The number of developed embryos in mWM ([2]; 35.5° C., 3 μM ALA, 96 hr): 39
- development rate with the number of 2-cell embryos 24 hours postfertilization in mWM defined as 100% ([2]; 35.5° C., 3 μM ALA, 96 hr (blastocysts)): 75%
